# Reference: PMC7486443, “Generation of Phenothiazine with Potent Anti-TLK1 Activity for Prostate Cancer Therapy” (iScience, 2020)
# Key:
# Test in all cases: biochemical
# Set-up in all cases: DiscoverX KINOMEscan scanMAX competition binding panel, single concentration, percent of control; remaining binding: dose or concentration left out as unconfirmed
# Conditions in all cases: KINOMEscan binding, percent of control; read-out: Table S4_SCANMAX REPORT - related to Fig. 1 / Percent Control
# BRSK2 = BRSK2 (Homo sapiens, UniProt Q8IWQ3)
# CAMKK2 = CAMKK2 (Homo sapiens, UniProt Q96RR4)
# CDK11 = target: T1, CDK11 (Homo sapiens, UniProt Q9BWU1)
# T1 construct: gene CDK19
# DCAMKL1 = target: T2, DCAMKL1 (Homo sapiens, UniProt O15075)
# T2 construct: gene DCLK1
# EGFR(L861Q) = EGFR(L861Q) (Homo sapiens, UniProt P00533, L861Q)
# ERBB2 = ERBB2 (Homo sapiens, UniProt P04626)
# FLT3(N841I) = FLT3(N841I) (Homo sapiens, UniProt P36888, N841I)
# MEK1 = target: T3, MEK1 (Homo sapiens, UniProt Q02750)
# T3 construct: gene MAP2K1
# PFTK1 = target: T4, PFTK1 (Homo sapiens, UniProt O94921)
# T4 construct: gene CDK14
# PRKCQ = PRKCQ (Homo sapiens, UniProt Q04759)
# PRKX = PRKX (Homo sapiens, UniProt P51817)
# RAF1 = RAF1 (Homo sapiens, UniProt P04049)
# RET(V804L) = RET(V804L) (Homo sapiens, UniProt P07949, V804L)
# [1] = target: T5, RPS6KA4(Kin.Dom.1-N-terminal) (Homo sapiens, UniProt O75676)
# T5 construct: Kin.Dom.1-N-terminal
# SGK3 = SGK3 (Homo sapiens, UniProt Q96BR1)
# SIK = target: T6, SIK (Homo sapiens, UniProt P57059)
# T6 construct: gene SIK1
# STK16 = STK16 (Homo sapiens, UniProt O75716)
# WNK4 = WNK4 (Homo sapiens, UniProt Q96J92)
# WNK4, sequence (Q96J92 whole entry): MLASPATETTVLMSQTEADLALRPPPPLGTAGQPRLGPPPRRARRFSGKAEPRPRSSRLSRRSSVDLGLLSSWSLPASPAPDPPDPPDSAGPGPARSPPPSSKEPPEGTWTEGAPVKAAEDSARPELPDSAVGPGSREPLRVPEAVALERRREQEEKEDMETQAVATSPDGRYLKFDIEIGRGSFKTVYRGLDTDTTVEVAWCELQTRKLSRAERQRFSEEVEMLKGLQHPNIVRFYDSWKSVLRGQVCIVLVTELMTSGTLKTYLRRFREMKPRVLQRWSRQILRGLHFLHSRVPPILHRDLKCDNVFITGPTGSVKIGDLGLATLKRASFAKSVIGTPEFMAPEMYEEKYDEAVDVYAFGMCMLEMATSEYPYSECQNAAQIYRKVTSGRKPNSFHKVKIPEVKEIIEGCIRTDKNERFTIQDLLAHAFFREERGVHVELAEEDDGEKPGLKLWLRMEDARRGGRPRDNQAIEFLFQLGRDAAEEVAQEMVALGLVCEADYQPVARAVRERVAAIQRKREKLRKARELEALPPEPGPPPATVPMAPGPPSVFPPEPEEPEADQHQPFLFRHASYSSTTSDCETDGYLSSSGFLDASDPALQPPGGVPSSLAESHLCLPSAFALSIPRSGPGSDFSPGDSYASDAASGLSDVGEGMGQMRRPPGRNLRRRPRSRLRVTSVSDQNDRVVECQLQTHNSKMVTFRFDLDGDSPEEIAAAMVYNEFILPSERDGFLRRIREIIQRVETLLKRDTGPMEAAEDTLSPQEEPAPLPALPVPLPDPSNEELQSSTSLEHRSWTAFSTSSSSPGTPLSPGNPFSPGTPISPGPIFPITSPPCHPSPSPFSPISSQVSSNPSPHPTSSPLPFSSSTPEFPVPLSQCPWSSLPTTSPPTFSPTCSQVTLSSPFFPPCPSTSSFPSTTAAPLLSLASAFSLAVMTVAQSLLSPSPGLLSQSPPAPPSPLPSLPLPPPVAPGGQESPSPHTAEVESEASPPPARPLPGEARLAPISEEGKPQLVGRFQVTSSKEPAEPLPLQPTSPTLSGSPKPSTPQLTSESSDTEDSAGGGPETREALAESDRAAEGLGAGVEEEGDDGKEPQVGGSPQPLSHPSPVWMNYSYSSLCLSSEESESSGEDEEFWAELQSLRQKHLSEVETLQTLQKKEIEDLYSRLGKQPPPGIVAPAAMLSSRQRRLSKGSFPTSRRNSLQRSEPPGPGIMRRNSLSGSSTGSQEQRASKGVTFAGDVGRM
# PRKCQ, sequence (Q04759 whole entry): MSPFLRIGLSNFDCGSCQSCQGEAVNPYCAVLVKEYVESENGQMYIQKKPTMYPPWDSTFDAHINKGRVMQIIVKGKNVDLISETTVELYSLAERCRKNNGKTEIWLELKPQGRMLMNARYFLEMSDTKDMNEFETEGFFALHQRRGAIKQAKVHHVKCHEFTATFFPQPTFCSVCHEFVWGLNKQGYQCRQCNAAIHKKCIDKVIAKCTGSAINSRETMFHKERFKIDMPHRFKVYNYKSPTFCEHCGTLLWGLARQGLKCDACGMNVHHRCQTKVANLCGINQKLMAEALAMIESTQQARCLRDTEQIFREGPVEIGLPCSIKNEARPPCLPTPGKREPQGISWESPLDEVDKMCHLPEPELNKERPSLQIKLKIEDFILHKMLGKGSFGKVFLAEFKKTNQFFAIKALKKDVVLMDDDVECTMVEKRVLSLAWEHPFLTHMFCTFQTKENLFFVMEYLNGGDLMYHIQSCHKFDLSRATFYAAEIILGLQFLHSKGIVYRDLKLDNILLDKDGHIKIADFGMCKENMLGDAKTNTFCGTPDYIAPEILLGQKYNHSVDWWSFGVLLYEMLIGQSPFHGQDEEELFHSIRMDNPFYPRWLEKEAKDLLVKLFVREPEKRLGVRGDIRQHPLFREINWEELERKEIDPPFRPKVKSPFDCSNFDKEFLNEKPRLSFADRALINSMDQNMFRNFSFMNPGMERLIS
# EGFR(L861Q), sequence (P00533 whole entry L861Q): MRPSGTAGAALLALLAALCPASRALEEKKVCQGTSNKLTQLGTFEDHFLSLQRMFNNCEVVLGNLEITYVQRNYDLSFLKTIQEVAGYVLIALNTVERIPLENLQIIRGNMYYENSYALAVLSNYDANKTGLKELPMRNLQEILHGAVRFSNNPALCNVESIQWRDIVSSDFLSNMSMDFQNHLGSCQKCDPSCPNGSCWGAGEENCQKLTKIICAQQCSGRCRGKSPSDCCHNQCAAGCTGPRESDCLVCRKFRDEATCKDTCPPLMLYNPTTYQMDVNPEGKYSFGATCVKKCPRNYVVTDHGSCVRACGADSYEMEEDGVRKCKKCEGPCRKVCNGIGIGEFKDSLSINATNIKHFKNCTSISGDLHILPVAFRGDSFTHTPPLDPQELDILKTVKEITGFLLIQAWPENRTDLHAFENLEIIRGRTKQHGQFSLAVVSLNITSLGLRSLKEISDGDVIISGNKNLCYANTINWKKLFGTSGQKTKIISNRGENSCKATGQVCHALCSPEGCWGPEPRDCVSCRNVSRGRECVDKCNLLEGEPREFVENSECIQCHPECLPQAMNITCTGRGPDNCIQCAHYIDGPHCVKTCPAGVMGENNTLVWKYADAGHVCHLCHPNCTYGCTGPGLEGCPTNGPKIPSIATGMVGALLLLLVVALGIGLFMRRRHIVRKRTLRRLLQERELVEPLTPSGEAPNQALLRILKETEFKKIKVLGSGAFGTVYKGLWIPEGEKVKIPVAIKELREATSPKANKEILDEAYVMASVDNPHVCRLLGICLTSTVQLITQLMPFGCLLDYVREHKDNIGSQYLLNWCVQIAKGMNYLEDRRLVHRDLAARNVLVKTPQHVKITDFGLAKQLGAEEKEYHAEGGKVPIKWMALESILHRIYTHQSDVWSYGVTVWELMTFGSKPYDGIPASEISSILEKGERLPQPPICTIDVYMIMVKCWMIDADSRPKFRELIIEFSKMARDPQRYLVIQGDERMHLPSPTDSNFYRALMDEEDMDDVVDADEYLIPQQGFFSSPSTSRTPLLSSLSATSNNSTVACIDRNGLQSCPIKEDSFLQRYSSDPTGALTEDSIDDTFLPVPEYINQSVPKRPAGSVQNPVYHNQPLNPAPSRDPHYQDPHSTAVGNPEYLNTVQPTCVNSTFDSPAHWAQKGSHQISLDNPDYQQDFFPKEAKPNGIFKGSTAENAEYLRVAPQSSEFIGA
# T3 sequence (Q02750 whole entry): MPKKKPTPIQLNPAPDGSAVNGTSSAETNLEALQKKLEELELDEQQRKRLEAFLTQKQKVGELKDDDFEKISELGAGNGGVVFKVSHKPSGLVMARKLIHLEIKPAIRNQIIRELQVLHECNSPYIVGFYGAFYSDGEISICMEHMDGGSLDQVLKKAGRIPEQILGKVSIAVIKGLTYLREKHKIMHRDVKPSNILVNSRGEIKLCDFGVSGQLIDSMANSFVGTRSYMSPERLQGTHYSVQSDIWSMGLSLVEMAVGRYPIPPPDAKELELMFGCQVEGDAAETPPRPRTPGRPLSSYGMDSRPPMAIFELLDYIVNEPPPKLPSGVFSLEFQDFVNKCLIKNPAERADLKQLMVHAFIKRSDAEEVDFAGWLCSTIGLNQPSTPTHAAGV
# T1 sequence (Q9BWU1 whole entry): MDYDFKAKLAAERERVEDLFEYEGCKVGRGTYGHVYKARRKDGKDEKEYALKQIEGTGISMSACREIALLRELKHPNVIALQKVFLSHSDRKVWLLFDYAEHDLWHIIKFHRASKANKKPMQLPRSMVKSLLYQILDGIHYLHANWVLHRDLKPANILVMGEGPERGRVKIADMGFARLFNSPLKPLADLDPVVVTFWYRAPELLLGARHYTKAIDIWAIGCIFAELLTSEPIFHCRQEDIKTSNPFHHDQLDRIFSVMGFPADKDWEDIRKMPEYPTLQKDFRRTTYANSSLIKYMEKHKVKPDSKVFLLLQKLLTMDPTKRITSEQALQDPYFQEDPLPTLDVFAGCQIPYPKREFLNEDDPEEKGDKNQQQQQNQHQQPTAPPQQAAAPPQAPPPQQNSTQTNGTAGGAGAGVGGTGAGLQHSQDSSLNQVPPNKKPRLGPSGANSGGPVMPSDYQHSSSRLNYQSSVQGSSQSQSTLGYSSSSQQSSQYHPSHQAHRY
# BRSK2, sequence (Q8IWQ3 whole entry): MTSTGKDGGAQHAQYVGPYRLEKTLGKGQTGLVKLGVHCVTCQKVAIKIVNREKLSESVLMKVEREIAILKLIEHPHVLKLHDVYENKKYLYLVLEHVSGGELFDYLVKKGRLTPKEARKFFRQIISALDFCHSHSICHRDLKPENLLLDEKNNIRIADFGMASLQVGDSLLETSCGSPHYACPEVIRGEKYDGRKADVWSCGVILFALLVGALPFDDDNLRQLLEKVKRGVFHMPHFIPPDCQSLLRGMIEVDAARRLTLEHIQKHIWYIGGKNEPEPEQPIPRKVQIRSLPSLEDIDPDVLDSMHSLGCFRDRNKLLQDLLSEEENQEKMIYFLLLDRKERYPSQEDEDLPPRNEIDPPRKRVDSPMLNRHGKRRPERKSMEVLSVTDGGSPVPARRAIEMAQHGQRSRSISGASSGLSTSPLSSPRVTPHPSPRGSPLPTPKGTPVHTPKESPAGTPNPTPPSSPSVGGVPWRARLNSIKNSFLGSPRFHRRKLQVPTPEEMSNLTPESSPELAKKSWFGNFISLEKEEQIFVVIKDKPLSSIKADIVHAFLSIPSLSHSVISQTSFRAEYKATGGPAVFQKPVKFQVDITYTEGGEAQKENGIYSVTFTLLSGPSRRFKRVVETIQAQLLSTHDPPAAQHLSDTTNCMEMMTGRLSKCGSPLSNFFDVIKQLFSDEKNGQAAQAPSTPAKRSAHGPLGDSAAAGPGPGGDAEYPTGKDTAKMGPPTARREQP
smiles,measurement,setting,value
c1ccc2c(c1)Sc1ccccc1N2CCN1CCOCC1 [J54],remaining binding,BRSK2,100%
same,remaining binding,CAMKK2,100%
same,remaining binding,CDK11,81%
same,remaining binding,DCAMKL1,100%
same,remaining binding,EGFR(L861Q),94%
same,remaining binding,ERBB2,100%
same,remaining binding,FLT3(N841I),99%
same,remaining binding,MEK1,100%
same,remaining binding,PFTK1,100%
same,remaining binding,PRKCQ,96%
same,remaining binding,PRKX,91%
same,remaining binding,RAF1,100%
same,remaining binding,RET(V804L),88%
same,remaining binding,[1],75%
same,remaining binding,SGK3,94%
same,remaining binding,SIK,91%
same,remaining binding,STK16,99%
same,remaining binding,WNK4,91%
